Measurements reported in PubChem BioAssay AID624254 (Broad Institute, 2012).
Active and inactive are the calls of the source. How the calls were made is not given here.

Molecular target: V. cholerae BH1651 luxOD47E, luciferase light induction, 6 h
Test: Luciferase light induction in v cholerae bh1651, agonist dose response, confirmatory (AID 624254)

Compound | AC50
COc1ccc(NC(=O)Nc2cccc3c2O[C@H](CN(C)S(=O)(=O)c2ccccc2)[C@@H](C)CN([C@H](C)CO)C3=O)cc1 | 13200 nM
NS(=O)(=O)c1ccc(NC(=O)NC2CCCCC2)cc1 | 2290 nM
Cc1noc(C)c1S(=O)(=O)N1CCCC(C(=O)NCCC2=CCCCC2)C1 (stereo not drawn) | 2640 nM
CCCCCCCCOC(=O)C(NC(=O)CCC(=O)Nc1ccc(S(N)(=O)=O)cc1)C(O)c1ccccc1 (stereo not drawn) | > 50000 nM (inactive)
Cc1cc(Oc2ccc(C#N)cc2)nc(N2CCOCC2)n1 | 208 nM
CSc1nc(C)cc(OCC(=O)N2CCOCC2)n1 | 113 nM
CN(CC(=O)Nc1c(Cl)cccc1Cl)C(=O)c1n[nH]c2ccccc12 | 38800 nM
Cc1cccc(-c2cc3nc4c(c(N5CCC6(CC5)OCCO6)n3n2)CCCC4)c1 | > 50000 nM (inactive)
CCCCCc1c(C)nc(N2CCc3ccccc3C2)[nH]c1=O | 295 nM
CCOCCCN1CC(C(=O)NCCc2ccc(C)cc2)CC1=O (stereo not drawn) | 185 nM
Cc1noc(C)c1NC(=O)Nc1cccc2c1O[C@@H](CN(C)S(=O)(=O)c1cccs1)[C@H](C)CN([C@H](C)CO)C2=O | 11200 nM
CCn1nnnc1NCc1ccc(SC)cc1 | 188 nM
Cc1ccc2onc(CC(=O)O)c2c1 | 8360 nM
O=c1cc(CSc2ccccn2)c2ccccc2[nH]1 | 615 nM
O=C(NCc1ccccn1)c1ccc(CS(=O)(=O)Cc2ccc(Cl)cc2)o1 | 20500 nM
O=[N+]([O-])c1ccc(N(CCO)CCO)c2c1no[n+]2[O-] | 1200 nM
CCC(NC(=O)Nc1nccs1)(C(F)(F)F)C(F)(F)F | 734 nM
Cn1c(Cn2cnc(Cl)c2Cl)nc2ccccc21 | 210 nM
O=C(NCc1ccco1)C1CCCN1S(=O)(=O)c1ccc2ccccc2c1 (stereo not drawn) | > 50000 nM (inactive)
Cc1ccc(C)c(-n2c(Cc3cccs3)n[nH]c2=S)c1 | < 23.5 nM
COc1ccc(OCCOC(=O)c2cccs2)cc1 | 40300 nM

Compound | AC50
Cc1ccc(C)c(S(=O)(=O)N2CCN(C(=O)c3n[nH]c(=O)c4ccccc34)CC2)c1 | 2960 nM
COc1ccccc1NC(=O)c1nn(-c2ccc(Cl)cc2)ccc1=O | 377 nM
C[C@H](CO)N1C[C@H](C)[C@@H](CN(C)S(=O)(=O)c2ccccc2)Oc2c(NC(=O)Nc3ccc4c(c3)OCO4)cccc2C1=O | 1800 nM
Cc1ccc(C(=O)OCC(=O)NCC(F)(F)F)cc1C | 2410 nM
CCCS(=O)(=O)N1CCC(C(=O)N2CCN(C(=O)OCC)CC2)CC1 | > 50000 nM (inactive)
COc1ccc(-c2noc(CCC(=O)N3CCN(c4cccc(C(F)(F)F)c4)CC3)n2)cc1 | 685 nM
O=C(NCc1ccccn1)C(C(=O)c1ccc(F)cc1)n1ccccc1=O (stereo not drawn) | 49.3 nM
COc1cc(NC(=O)Nc2cccc(Cl)c2)c(OC)cc1NC(=O)CN1CCCCC1 | 522 nM
CCOc1ccc(CNC(=O)c2ccco2)cc1 | 35600 nM
CC(C)(C)Cc1nc(-c2ccccn2)no1 | > 50000 nM (inactive)
COc1ccc(OCCOC(=O)CCS(=O)(=O)c2ccc(C)cc2)cc1 | 208 nM
COc1cccc(OCC(=O)NC2CCCCC2)c1 | 2430 nM
CCc1cc(C(=O)c2ccccc2OC)c(N)s1 | 802 nM
COc1ccc(C)c2sc(N3CCCC3)nc12 | 1520 nM
CC(C)n1nnnc1SCC(=O)c1ccc2c(c1)OCCO2 | 845 nM
COc1ccc(CNc2nnnn2C)cc1 | 3510 nM
Cc1cccc(NC(=O)c2c(O)c3ccccc3n(C)c2=O)c1 | > 50000 nM (inactive)
C=C(C)COc1ccc(-c2ncncc2Oc2ccc(OC)cc2)c(O)c1 | 632 nM
CCOc1ccc(CCNC(=O)C2CCN(c3ccc(N4CCOCC4)nn3)CC2)cc1OCC | 44.5 nM
COc1cc(NC(=O)C2=C(C)OCCS2)c(Cl)cc1C(=O)NCCN(C)C | 463 nM
CCC(CC)c1nnc(NC(=O)COc2ccc3c(C)cc(=O)oc3c2)s1 | 99.8 nM

Compound | AC50
C[C@H](CO)N1C[C@H](C)[C@@H](CN(C)S(=O)(=O)c2cccs2)Oc2c(NC(=O)Nc3ccc4c(c3)OCO4)cccc2C1=O | 1180 nM
Cc1cc(C)cc(NC(=O)Cn2ncn3c(cc4ccccc43)c2=O)c1 | 7050 nM
COCc1[nH]nc2c1C1(CCC3(CC1)OCCO3)C(C#N)=C(N)O2 | > 50000 nM (inactive)
Cc1ccc(-n2nnnc2SCC(=O)NCC2CCCO2)cc1C (stereo not drawn) | 33.6 nM
CC(=O)c1cccc(NC(=O)CSc2nc(=O)n(CCCN3CCOCC3)c3c2CCC3)c1 | 180 nM
COc1ccc(CNC(=O)c2cc(-n3cnnc3)ccc2Cl)cc1 | 4230 nM
CCC(=O)N(CC)c1nc(-c2cc(OC)ccc2OC)cs1 | 162 nM
CCn1cc(C(=O)NC2CCCCC2C)c(=O)c2ccc(C)nc21 (stereo not drawn) | 1080 nM
CCn1nc(NC(=O)c2ccco2)c2cc3ccccc3nc21 | 2360 nM
C=CCn1c(NCc2ccccc2)nc2ccccc21 | 11700 nM
CCCOc1ccc(-c2nc(OC)c3ccccc3n2)cc1 | 7010 nM
O=C(O)c1cccc(Nc2ncnc3c2cnn3-c2ccccc2)c1 | > 50000 nM (inactive)
Cn1c(C(=O)NC2CCCCC2)cc2c(=O)n(C)c3ccccc3c21 | 27.3 nM
O=C(NC1CCCCC1)C(=O)c1c[nH]c2ccccc12 | < 23.5 nM
O=C(CSc1nnc2ccccn12)c1ccc2c(c1)OCCO2 | 17000 nM
COc1ccc(OC)c(S(=O)(=O)N2CCC(C(=O)N3CCc4ccccc4C3)CC2)c1 | 191 nM
O=C(CCN1C(=O)c2ccccc2C1=O)N1CCN(C2c3ccccc3-c3ccccc32)CC1 | 209 nM
Cc1ccc(Cn2c(SCC(C)C)nc3c2c(=O)[nH]c(=O)n3C)cc1 | 166 nM
CC(C)Cn1c(CN2CCN(C)C(CCO)C2)nc2ccccc21 (stereo not drawn) | > 50000 nM (inactive)
CC(=O)Nc1ccc(N2CCCC2)cc1 | > 50000 nM (inactive)
COc1ccc(Cl)cc1NC(=O)COC(=O)c1ccc(Br)o1 | 8880 nM

Compound | AC50
O=C(Nc1nccs1)C(NS(=O)(=O)c1ccc(Br)s1)c1ccccc1 (stereo not drawn) | 15800 nM
O=C(NCCC(=O)N1CCCCC1)c1ccc(Br)cc1 | 25000 nM
CCOC(=O)C1=C(C)N=C2SCCC(=O)N2C1c1cc(Br)ccc1OC (stereo not drawn) | 35.4 nM
Cc1noc(C)c1S(=O)(=O)Nc1ccc2c(c1)C(=O)N([C@H](C)CO)C[C@H](C)[C@@H](CN(C)Cc1ccc(C(=O)O)cc1)O2 | 18800 nM
CSc1ccc(C#N)cc1NC(=O)c1ccc(Cl)cc1Cl | > 50000 nM (inactive)
C[C@H](CO)N1C[C@H](C)[C@@H](CN(C)S(=O)(=O)c2ccccc2)Oc2c(NC(=O)Nc3ccccc3)cccc2C1=O | 6480 nM
Cc1cc(=O)[nH]c(CN2CCC(c3ccccc3)CC2)n1 | 296 nM
C[C@H](CO)N1C[C@H](C)[C@@H](CN(C)S(=O)(=O)c2ccccc2)Oc2c(NC(=O)Nc3ccc(F)cc3)cccc2C1=O | 1910 nM
Cc1cc2oc(=O)cc(-c3ccccc3)c2c(C)c1-c1ccc(C#N)cc1 | 3210 nM
CN(C(=O)Cn1cc(C(F)(F)F)cc(Cl)c1=O)C1CCS(=O)(=O)C1 (stereo not drawn) | 1230 nM
Cc1ccc2nc(NCCc3ccccc3)c3nncn3c2c1 | 68.1 nM
CC(=O)Oc1ccc(-c2ccc(C(=O)O)cc2)cc1 | > 50000 nM (inactive)
O=C(Cn1cccc1C(=O)c1ccccc1)NCCN1CCCCCC1 | 25600 nM
O=[N+]([O-])c1ccc(N2CCOCC2)c2c1no[n+]2[O-] | 1740 nM
CC1CCCCC1NC(=O)COC(=O)c1ccccc1NC(=O)c1ccco1 (stereo not drawn) | 20000 nM
O=C(c1ccc(C(=O)N2CCOCC2)nc1)N1CCOCC1 | 183 nM
CCCCn1nnnc1NCc1ccc(N2CCCC2)cc1 | 38700 nM
Cc1noc(C)c1C(=O)OCC(=O)c1c[nH]c2ccccc12 | > 50000 nM (inactive)
COc1ccc(S(=O)(=O)N2CCN(c3cnccn3)CC2)cc1 | 2580 nM
Cc1sc(N)nc1-c1ccc(Oc2ccccc2)cc1 | 167 nM
